Values quoted from earlier work as cited in patent US20100137247A1, “Anti-inflammatory compositions and methods” (Searete LLC, a limited liability corporation of the State …, priority 2008, published 2010).

How the values were obtained:
[1] = tested on: lethal septic shock; details: mice
[2] = tested on: Src family kinase
[3] = 400 mg infused over one hour, single agent
[4] = tested on: proteasomal activity in cultured breast cancer cells; details: disulfiram bound to copper

Compound: Cl.Cl.Nc1ccccc1Oc1ccc2c(N)nsc2c1 [Example M62812, 3-amino-6-(2-aminophenoxy)-1,2-benzisothiazole dihydrochloride]
- prevention of lethal septic shock [1]: prevents lethal septic shock

Compound: CCN(CC)CCCC(C)Nc1ccnc2cc(Cl)ccc12 (stereo not shown) [Chloroquine]
- inhibition of CpG-induced Src family kinase activation or its dependent cellular responses [2]: does not inhibit

Compound: CCN(CC)CCCC(C)Nc1ccnc2cc(Cl)ccc12.O=P(O)(O)O.O=P(O)(O)O (stereo not shown) [Chloroquine phosphate, 7-chloro-4-[[4-(diethylamino)-1-methylbutyl]amino]quinoline phosphate (1:2)]
- tolerability of infusion [3]: without complication

Compound: CCN(CC)C(=S)SSC(=S)N(CC)CC [Disulfiram, 1-(diethylthiocarbamoyldisulfanyl)-N,N-diethyl-methanethioamide]
- proteasomal activity [4]: inhibits proteasomal activity
